16 compounds from US10975056B2 (GlaxoSmithKline Intellectual Property Development Limited, priority 2016, dated 2021) can be followed below.

“And” between values parts separate entries of the source, which are not always exact repeats. Equal values may be shown once. Where a name gives a salt, the structure may show the parent alone.

The target of the first experiment is DNMT1 (Homo sapiens, UniProt P26358). The experiment in a line: DNMT1 biochemical activity, breaklight assay and/or SPA assay. As to conditions: DNMT1 BioChemical (pIC50 category), binned activity in either the breaklight or the SPA assay. The protocol: DNMT1 breaklight in vitro assays were conducted in a total volume of 50 μl in a standard 384 well format, using black non-binding surface microplates (Corning 3575). […] Negative control wells used 5 μl of DNMT1 and 5 μl of oligonucleotide but 0 μM SAM. All reagents were made up in 1× assay buffer (20 mM Tris pH 6.8, 25 mM NaCl, 0.5 mM MgCl2, 0.01% Triton X100 and 1 mM DTT). The reaction was incubated at 26° C. for 45 min and then stopped with the addition of 40 μl detection reagent. Detection reagent, made up in 1× Gla assay buffer (20 mM Tris pH 8.0, 80 mM NaCl, 0.75 mM MgCl2, 0.01% Triton X100 and 1 mM DTT) has a final concentration of 100 μM SAH (Sigma #A9384) and 0.0008 units/μl Gla1 restriction endonuclease (Sibenzyme #E494). Following addition of the detection reagent the plate was incubated in the dark at room temperature for 5 hr. Fluorescence intensity was then measured on the PHERAstar FS (BMG Labtech) at Ex 485 nm and Em 520 nm, with a gain of 400 and an integration time of 100 ms.
DNMT1, sequence (P26358 whole entry, looked up): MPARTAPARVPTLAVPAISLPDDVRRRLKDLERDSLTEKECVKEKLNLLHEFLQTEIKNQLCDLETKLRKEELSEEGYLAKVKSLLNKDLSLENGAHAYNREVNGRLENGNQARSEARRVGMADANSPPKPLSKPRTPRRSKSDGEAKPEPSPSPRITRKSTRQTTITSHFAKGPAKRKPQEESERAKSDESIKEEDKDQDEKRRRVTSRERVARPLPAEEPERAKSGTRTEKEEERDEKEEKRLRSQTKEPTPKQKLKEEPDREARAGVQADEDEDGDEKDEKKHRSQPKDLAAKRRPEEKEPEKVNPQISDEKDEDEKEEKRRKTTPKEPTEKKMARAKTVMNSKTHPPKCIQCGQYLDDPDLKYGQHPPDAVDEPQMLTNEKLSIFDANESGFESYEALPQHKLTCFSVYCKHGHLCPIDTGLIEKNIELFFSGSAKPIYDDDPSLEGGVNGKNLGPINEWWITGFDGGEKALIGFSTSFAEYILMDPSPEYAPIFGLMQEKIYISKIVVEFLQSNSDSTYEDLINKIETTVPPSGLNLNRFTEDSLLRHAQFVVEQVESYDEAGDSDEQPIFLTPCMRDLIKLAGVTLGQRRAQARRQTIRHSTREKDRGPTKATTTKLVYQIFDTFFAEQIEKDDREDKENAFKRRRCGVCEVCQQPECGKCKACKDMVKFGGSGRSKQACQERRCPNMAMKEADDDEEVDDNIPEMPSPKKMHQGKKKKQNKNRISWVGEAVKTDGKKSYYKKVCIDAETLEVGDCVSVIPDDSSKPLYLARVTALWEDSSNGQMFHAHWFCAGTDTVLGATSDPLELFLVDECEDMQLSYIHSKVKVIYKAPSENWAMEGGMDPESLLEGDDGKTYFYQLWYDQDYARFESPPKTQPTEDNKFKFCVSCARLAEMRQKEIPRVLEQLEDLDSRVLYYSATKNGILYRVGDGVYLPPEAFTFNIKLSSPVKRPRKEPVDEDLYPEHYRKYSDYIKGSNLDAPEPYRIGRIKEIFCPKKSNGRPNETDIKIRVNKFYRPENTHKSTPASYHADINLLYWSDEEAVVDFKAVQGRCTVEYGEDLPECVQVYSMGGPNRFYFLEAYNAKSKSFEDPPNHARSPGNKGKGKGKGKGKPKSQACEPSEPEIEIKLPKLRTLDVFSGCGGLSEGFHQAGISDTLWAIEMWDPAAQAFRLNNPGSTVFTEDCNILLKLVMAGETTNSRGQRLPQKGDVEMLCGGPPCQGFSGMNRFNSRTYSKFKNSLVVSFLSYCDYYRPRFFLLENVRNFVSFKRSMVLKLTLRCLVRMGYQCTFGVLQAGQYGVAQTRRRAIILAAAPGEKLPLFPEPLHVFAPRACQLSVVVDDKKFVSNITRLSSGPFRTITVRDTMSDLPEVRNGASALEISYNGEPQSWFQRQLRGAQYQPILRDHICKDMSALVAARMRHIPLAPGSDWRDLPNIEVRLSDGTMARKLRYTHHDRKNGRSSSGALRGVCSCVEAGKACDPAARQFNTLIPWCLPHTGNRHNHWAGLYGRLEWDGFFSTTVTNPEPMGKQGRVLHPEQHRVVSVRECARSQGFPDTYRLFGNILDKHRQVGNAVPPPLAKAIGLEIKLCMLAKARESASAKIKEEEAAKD
Biochemical activity of DNMT1 analyzed using SPA technology. Plates (Griener 784075) were pre-stamped with 100 nL/well of compound (11-point, 3-fold serial dilution). […] Low control wells contained 5 μL of buffer instead of enzyme. Following a 40 minute incubation, the reaction was quenched upon the addition of 10 μL of stop mixture containing 1 mM SAM (Sigma A7007) and 2 mg/mL PEI beads (Perkin Elmer RPNQ0098). Plates were sealed, centrifuged for 1 min and then read on a Viewlux (Perkin Elmer) using the 613 nm emission filter/300 s read time following a 30 minute dark adapt. Assay conditions prior to quench consisted of 40 nM DNMT1 (601-1600, produced internally), 100 nM 3H-SAM (American Radiolabeled Chemicals ART 0288), 900 nM SAM (New England BioLabs B9003S) and 200 nM hemi methylated DNA oligonucleotide (synthesized at Integrated DNA Technologies, 5′-[…]-3′) in 50 mM HEPES (pH 8.0), 2 mM MgCl2, 1 mM DTT, 0.01% NP-40 and 0.01% BSA.
Comments • 1. […] Where a field is empty, the compound was not tested in that assay.
`CCc1c(C#N)c(S[C@@H](C(N)=O)c2ccccc2)nc(N2CC[C@@H](N)[C@@H](O)C2)c1C#N` [Example 514, (R)-2-((6-((3S,4R)-4-amino-3-hydroxypiperidin-1-yl)-3,5-dicyano-4-ethylpyridin-2-yl)thio)-2-phenylacetamide, Trifluoroacetic acid salt] yielded an IC50 of less than 316 nM.

The same experiment, now with this note: binned activity in either the breaklight or the SPA assay.
With `CCc1c(C#N)c(SC(C(N)=O)c2ccccc2)nc(N2CCC(C3CCN(CCO)CC3)CC2)c1C#N` (stereo not shown) [Example 60, 2-((3,5-dicyano-4-ethyl-6-(1′-(2-hydroxyethyl)-[4,4′-bipiperidin]-1-yl)pyridin-2-yl)thio)-2-phenylacetamide], the “DNMT1 BioChemical (pIC50 category)” value was “D (Category D: ≥6.5)”. Same read-out and setting: under `CCc1c(C#N)c(S[C@@H](C(N)=O)c2ccccc2)nc(N(C)[C@@H]2CCOC2)c1C#N` [Example 501, (R)-2-(3,5-dicyano-4-ethyl-6-(methyl((R)-tetrahydrofuran-3-yl)amino)pyridin-2-ylthio)-2-phenylacetamide] stands “D (Category D: ≥6.5)”; under `CCc1c(C#N)c(SC(C(N)=O)c2ccc(F)cc2)nc(N2CCC(N(C)C3CCC3)CC2)c1C#N` (stereo not shown) [Example 432, 2-((3,5-Dicyano-6-(4-(cyclobutyl(methyl)amino)piperidin-1-yl)-4-ethylpyridin-2-yl)thio)-2-(4-fluorophenyl)acetamide], “D (Category D: ≥6.5)”. Consider `CCc1c(C#N)c(SC(C(N)=O)c2ccccc2)nc(N2CCC(NCCOC)CC2)c1C#N` (stereo not shown) [Example 553, 2-((3,5-dicyano-4-ethyl-6-(4-((2-methoxyethyl)amino)piperidin-1-yl)pyridin-2-yl)thio)-2-phenylacetamide], for which the “DNMT1 BioChemical (pIC50 category)” value is recorded as “D (Category D: ≥6.5)”. On the same count and under the same terms, under `COc1c(C#N)c(SC(C(N)=O)c2ccccc2)nc(N2CC[C@H](O)C2)c1C#N` (stereo partly drawn) [Example 696, 2-((3,5-dicyano-6-((S)-3-hydroxypyrrolidin-1-yl)-4-methoxypyridin-2-yl)thio)-2-phenylacetamide] stands “D (Category D: ≥6.5)”; under `CCc1c(C#N)c(SCc2ccc(N(C)S(C)(=O)=O)cc2)nc(N2CC[C@@H](CNC(=O)CN)C2)c1C#N` [Example 672, (S)-2-amino-N-((1-(3,5-dicyano-4-ethyl-6-((4-(N-methylmethylsulfonamido)benzyl)thio)pyridin-2-yl)pyrrolidin-3-yl)methyl)acetamide], “D (Category D: ≥6.5)”; under `CCc1c(C#N)c(S[C@H](C(N)=O)c2ccccc2)nc(N(C)[C@@H]2CCOC2)c1C#N` [Example 502, (S)-2-(3,5-dicyano-4-ethyl-6-(methyl((R)-tetrahydrofuran-3-yl)amino)pyridin-2-ylthio)-2-phenylacetamide], “D (Category D: ≥6.5)”. Turning to `CCc1c(C#N)c(SC(C(N)=O)c2ccccc2)nc(N2CCC(NCC3(C)CC3)CC2)c1C#N` (stereo not shown) [Example 473, 2-((3,5-dicyano-4-ethyl-6-(4-(((1-methylcyclopropyl)methyl)amino)piperidin-1-yl)pyridin-2-yl)thio)-2-phenylacetamide], the “DNMT1 BioChemical (pIC50 category)” value is “D (Category D: ≥6.5)”. With `CCc1c(C#N)c(SC(C(N)=O)c2ccccc2)nc(N2CCCN(CC(O)CO)CC2)c1C#N` (stereo not shown) [Example 678, 2-((3,5-dicyano-6-(4-(2,3-dihydroxypropyl)-1,4-diazepan-1-yl)-4-ethylpyridin-2-yl)thio)-2-phenylacetamide], the “DNMT1 BioChemical (pIC50 category)” value is listed as “D (Category D: ≥6.5)”.

Staying with this experiment, now noted: binned activity in either the breaklight or the SPA assay; read-out: DNMT1 BioChemical (pIC50 category) (converted).
As for `CCc1c(C#N)c(S[C@@H](C(N)=O)c2ccccc2)nc(N(C)CCOP(=O)(O)O)c1C#N` [Example 421, (R)-2-((6-((2-amino-2-oxo-1-phenylethyl)thio)-3,5-dicyano-4-ethylpyridin-2-yl(methyl)amino)ethyldihydroden phosphate], the IC50 was 1000 to 31600 nM. `CCc1c(C#N)c(SC(C(N)=O)c2ccccc2)nc(N2CCN(C(=O)c3ccccc3)CC2)c1C#N` (stereo not shown) [Example 131, 2-((6-(4-Benzoylpiperazin-1-yl)-3,5-dicyano-4-ethylpyridin-2-yl)thio)-2-phenylacetamide]: the IC50 is 316 to 1000 nM. Take `CCc1c(C#N)c(SC(C(N)=O)c2ccccc2)nc(N2CC[C@@]3(CCCN3S(C)(=O)=O)[C@@H](O)C2)c1C#N` (stereo partly drawn) [Example 132, 2-((3,5-Dicyano-4-ethyl-6-((5S,6S)-6-hydroxy-1-(methylsulfonyl)-1,8-diazaspiro[4.5]decan-8-yl)pyridin-2-yl)thio)-2-phenylacetamide]: the IC50 is 316 to 1000 nM. Take `N#Cc1c(SC(C(N)=O)c2ccccc2)nc(N2CCCN(CCO)CC2)c(C#N)c1CC(F)(F)F` (stereo not shown) [Example 113, 2-({3,5-Dicyano-6-[4-(2-hydroxyethyl)-1,4-diazepan-1-yl]-4-(2,2,2-trifluoroethyl)pyridin-2-yl}sulfanyl)-2-phenylacetamide]: the IC50 is 316 to 1000 nM. Turning to `CCc1c(C#N)c(S[C@H](C(N)=O)c2ccccc2)nc(N2CCC(C)(N)CC2)c1C#N` (single isomer, unassigned) [Example 617, 2-((6-(4-amino-4-methylpiperidin-1-yl)-3,5-dicyano-4-ethylpyridin-2-yl)thio)-2-phenylacetamide], the IC50 is 1000 to 31600 nM. On the same count and under the same terms, under `CCc1c(C#N)c(SC(C(N)=O)c2ccccc2)nc(N2CCN(CCN3CCCC3)CC2)c1C#N` (stereo not shown) [Example 304, 2-((3,5-Dicyano-4-ethyl-6-(4-(2-(pyrrolidin-1-yl)ethyl)piperazin-1-yl)pyridin-2-yl)thio)-2-phenylacetamide] stands 316 to 1000 nM.

Still in this experiment, the particulars now being: breaklight assay and/or SPA assay, repeated experimental runs; read-out: average pIC50 against DNMT1 (converted).
For `CCc1c(C#N)c(SC(C(N)=O)c2ccccc2)nc(N2CCN(C(=O)c3ccccc3)CC2)c1C#N` (stereo not shown) [Example 131, 2-((6-(4-Benzoylpiperazin-1-yl)-3,5-dicyano-4-ethylpyridin-2-yl)thio)-2-phenylacetamide], the IC50 is 316 to 1000 nM. Still for that read-out and setting: to `CCc1c(C#N)c(SC(C(N)=O)c2ccccc2)nc(N2CC[C@@]3(CCCN3S(C)(=O)=O)[C@@H](O)C2)c1C#N` (stereo partly drawn) [Example 132, 2-((3,5-Dicyano-4-ethyl-6-((5S,6S)-6-hydroxy-1-(methylsulfonyl)-1,8-diazaspiro[4.5]decan-8-yl)pyridin-2-yl)thio)-2-phenylacetamide] belongs 316 to 1000 nM; to `CCc1c(C#N)c(S[C@H](C(N)=O)c2ccccc2)nc(N2CCC(C)(N)CC2)c1C#N` (single isomer, unassigned) [Example 617, 2-((6-(4-amino-4-methylpiperidin-1-yl)-3,5-dicyano-4-ethylpyridin-2-yl)thio)-2-phenylacetamide], ≥ 1000 nM and 2510 nM.
